Ki data for one molecule are collected here from paper PMC12441857, “Cannabinoid CB1 Receptor Activation Mitigates N‑Methyl‑D‑aspartate Receptor-Mediated Neurotoxicity” (ACS Pharmacology & Translational Science, 2025).

The assay deals with T1, cannabinoid CB1 receptor (CB1R) (Homo sapiens, UniProt P21554).
T1 construct: gene CNR1; SNAP-tagged CB1R in HEK-293T cells
Kind of assay: HTRF (Tag-lite) competition binding against fluorescent CELT-335. The format is cell-based. (TR-FRET usually uses a lanthanide donor and a delayed reading to cut background.)

T1 sequence (P21554 whole entry): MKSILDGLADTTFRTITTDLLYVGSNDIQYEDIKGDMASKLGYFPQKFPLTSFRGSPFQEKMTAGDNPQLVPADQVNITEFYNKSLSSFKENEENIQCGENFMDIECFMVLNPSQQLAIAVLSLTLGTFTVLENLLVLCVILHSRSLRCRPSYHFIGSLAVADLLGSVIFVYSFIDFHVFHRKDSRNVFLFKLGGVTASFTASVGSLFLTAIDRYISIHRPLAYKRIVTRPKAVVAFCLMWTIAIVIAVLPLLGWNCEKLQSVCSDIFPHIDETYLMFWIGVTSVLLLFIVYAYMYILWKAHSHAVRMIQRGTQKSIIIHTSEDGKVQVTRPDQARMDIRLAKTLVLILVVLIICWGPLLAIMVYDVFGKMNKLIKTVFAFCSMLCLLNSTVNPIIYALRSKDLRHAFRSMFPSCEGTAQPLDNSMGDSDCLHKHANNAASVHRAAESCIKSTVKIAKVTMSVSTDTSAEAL

`CCCCC/C=C\C/C=C\C/C=C\C/C=C\CCCC(=O)NCCCl` [ACEA]: affinity was put at a Ki of 4.8 nM.

Broadly, the Ki is the dissociation constant of the complex between target and ligand, obtained from inhibition or displacement. Lower therefore signals a stronger hold on the target.
